Test: Plasma α-tocopherol levels in mice fed with α-tocopherol (HPLC)
Assay type: in vivo, mouse
Conditions: fed α-tocopherol 82 μmol/kg from 4 weeks of age, time course FIG. 7
Experimental: Each of the homozygous α-TTP-deficient, heterozygous α-TTP-deficient and wild-type mice was fed with α-tocopherol at a concentration of 82 μmol/kg from 4 weeks of age. All mice were then assayed for their plasma α-tocopherol levels according to the method of Kim, H. S. et al. (Free Rad. Res. 28, 87–92, 1998). More specifically, 50 μl of mouse plasma collected using heparin was diluted with 950 Pl of PBS, mixed with 1 ml of 6% pyrogarol in EtOH, and then allowed to stand at 70° C. for 2 minutes. After addition of 60% KOH (0.2 ml), the mixture was saponified at 70° C. for 30 minutes, vortexed with 5 ml of n-hexane and 2.5 ml of H2O, and then centrifuged to collect the n-hexane layer (4 ml). The layer was evaporated and dissolved in […] of ethanol, followed by HPLC analysis. HPLC was performed under the following conditions: column: IRIKA RP18 (250×4 mm), mobile phase: MeOH/H2O/NaClO4 (1000/2/7, v/v/w), detection: IRIKA Amperometric E-520 detector. Tocol was used as an internal standard.

Cc1c(C)c2c(c(C)c1O)CC[C@@](C)(CCC[C@H](C)CCC[C@H](C)CCCC(C)C)O2 [α-tocopherol]
plasma α-tocopherol level as compared with the wild-type mice (heterozygous α-TTP-deficient mice): about one-half
plasma α-tocopherol level (homozygous α-TTP-deficient mice): under the detection limit

Reference: patent publication US6982362B1, “α-tocopherol transport protein knockout animal” (priority 1999, dated 2006)
